Reference: the supplement of paper PMC9663587

Assays:
Assay in all cases: GRmax, 72 h; higher = less effect;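 further: breast cell lines in 384-well plates, nine doses across a 10^4 range, Dye Drop imaging of viable cells vs DMSO and time-zero plates, GR 0 means no net growth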
ZR751 = tested on: ZR751
MDAMB436 = tested on: MDAMB436
HCC1187 = tested on: HCC1187
EFM19 = tested on: EFM19
MCF10A = tested on: MCF10A
HCC1569 = tested on: HCC1569
BT549 = tested on: BT549
AU565 = tested on: AU565
UACC893 = tested on: UACC893
MDAMB330 = tested on: MDAMB330
UACC812 = tested on: UACC812
MDAMB415 = tested on: MDAMB415
HTERT_HME1 = tested on: HTERT_HME1
SUM44PE = tested on: SUM44PE
BT20 = tested on: BT20

SMILES	GRmax, 72 h (ZR751) [GR]	GRmax, 72 h (MDAMB436) [GR]	GRmax, 72 h (HCC1187) [GR]	GRmax, 72 h (EFM19) [GR]	GRmax, 72 h (MCF10A) [GR]	GRmax, 72 h (HCC1569) [GR]	GRmax, 72 h (BT549) [GR]	GRmax, 72 h (AU565) [GR]	GRmax, 72 h (UACC893) [GR]	GRmax, 72 h (MDAMB330) [GR]	GRmax, 72 h (UACC812) [GR]	GRmax, 72 h (MDAMB415) [GR]	GRmax, 72 h (HTERT_HME1) [GR]	GRmax, 72 h (SUM44PE) [GR]	GRmax, 72 h (BT20) [GR]
COc1ccc2c(c1)[C@]1(C[C@H]1c1ccc3c(/C=C/c4ccc(CN5C[C@@H](C)O[C@@H](C)C5)cc4)n[nH]c3c1)C(=O)N2	0.166	-0.226	-0.485	0.146	-0.0342	-0.0697	0.0324	-0.165	0.138	0.284	-0.135	0.157	-0.106	-0.249	-0.231
COc1cccc(OCCCN)c1-c1cc(Nc2cnc(C#N)cn2)n[nH]1	0.384	0.0078	-0.498	0.929	0.351	-0.0272	-0.422	0.0394	0.365	-0.183	0.528	0.69	-0.0816	-0.79	-0.2
CC(=O)Nc1cccc(-n2c(=O)n(C3CC3)c(=O)c3c(Nc4ccc(I)cc4F)n(C)c(=O)c(C)c32)c1 (max 1 µM)	0.266	0.557	0.76	0.952	0.225	0.522	0.598	1.01	-0.0662	0.251	-0.119	0.285	0.203	0.56	0.503
CCc1cnn2c(NCc3ccc[n+]([O-])c3)cc(N3CCCC[C@H]3CCO)nc12 (max 1 µM)	-0.406	-0.144	-0.791	-0.532	-0.23	-0.245	-0.292	-0.752	-0.641	-0.504	-0.942	-0.488	-0.285	-0.925	-0.698
CC(=O)c1c(C)c2cnc(Nc3ccc(N4CCNCC4)cn3)nc2n(C2CCCC2)c1=O (max 3.162 µM)	0.482	1.06	0.646	0.308	0.454	0.983	1.08	0.177	0.344	0.207	-0.142	0.117	0.257	0.437	0.162
CCc1cncnc1N1CCN(Cc2nc3ccc(C(F)(F)F)cc3[nH]2)CC1 (max 10 µM)	0.867	0.194	0.575	0.921	0.721	0.7	0.744	0.476	0.351	0.621	-0.22	0.431	0.455	0.292	0.66
CCCCOc1c(C(=O)c2c(F)cc(C)cc2F)c[nH]c2nncc1-2 (max 10 µM)	0.451	0.264	0.437	0.188	0.0637	0.0899	-0.149	-0.158	0.117	0.129	-0.394	0.24	-0.0276	-0.234	-0.105
CCN1CCN(Cc2ccc(Nc3ncc(F)c(-c4cc(F)c5nc(C)n(C(C)C)c5c4)n3)nc2)CC1 (max 10 µM)	0.311	-0.333	0.0999	0.267	0.151	0.116	0.0333	-0.321	-0.22	-0.0152	-0.603	-0.0085	0.0156	-0.763	-0.216
CNc1nc(-c2ccc3c(N)n[nH]c3c2)cc(N2C[C@@H](C(=O)NC3CCCCC3)CC[C@H]2C)n1 (max 10 µM)	0.425	0.811	0.504	0.292	0.918	0.673	0.666	0.391	0.144	-0.738	0.166	0.0477	0.641	0.166	0.68
CO[C@@H](C)Cn1c(=O)n(C)c2cnc3ccc(-c4cncc(C(C)(C)O)c4)cc3c21 (max 10 µM)	-0.117	0.323	-0.718	-0.255	0.108	-0.0783	-0.0177	-0.533	-0.84	-0.799	-0.663	-0.473	0.0519	-0.855	-0.645
Cc1nn(C)c(COc2ccc(N3CCN(S(=O)(=O)N(C)C)CC3)cc2)c1-c1cccc2c(CCCOc3cccc4ccccc34)c(C(=O)O)n(CCN3CCOCC3)c12 (max 10 µM)	1.03	0.873	0.863	1	0.953	0.928	0.954	0.611	0.763	0.881	0.991	0.881	-0.422	-0.463	0.821
CN(C)CC[C@H](CSc1ccccc1)Nc1ccc(S(=O)(=O)NC(=O)c2ccc(N3CCN(Cc4ccccc4-c4ccc(Cl)cc4)CC3)cc2)cc1[N+](=O)[O-] [ABT-737] (max 10 µM)	0.886	0.815	0.492	0.475	0.817	-0.406	0.936	0.261	0.49	-0.104	0.329	0.352	0.495	-0.0028	0.593
C=CCn1c(=O)c2cnc(Nc3ccc(N4CCN(C)CC4)cc3)nc2n1-c1cccc(C(C)(C)O)n1 [AZD1775] (max 10 µM)	0.247	-0.26	-0.729	-0.425	0.0997	-0.167	-0.456	-0.485	-0.42	-0.234	-0.598	-0.186	-0.17	-0.813	-0.677
